Data taken from patent US4074049A, “Antithrombotic 1,3,4-thiadiazole” (The Dow Chemical Company, priority 1976, dated 1978).
Like-named read-outs stand apart in the source and are kept apart here.

Tests used:
[1] = test system: ADP-induced platelet aggregation; assay: In vitro inhibition of ADP-induced platelet aggregation (Born technique, optical density, platelet rich plasma); type: cell-based, rat
Experimental: Rat blood was collected into 3.0 percent trisodium citrate solution (1:10) by cardiac puncture undeer methoxyflurane anesthesia. The blood was centrifuged at 120 g for 10 minutes at room temperature and the supernatant platelet rich plasma was removed and diluted with lactated Ringer's solution containing the […] aggregation inhibiting agent (1.0:1.5). Samples of 1.0 ml were pipetted into plastic test tubes and incubated for three minutes. Plastic equipment was used for all procedures. The concentration of the thiadiazole compound in micromoles inhibiting ADP aggregation by 50 percent (IC50) was determined using changes in optical density as a indicium of platelet aggregation.

[2] = test system: ADP induced platelet aggregation; assay: In vivo platelet aggregation measurement, filter occlusion technique (Broersma et al.); set-up: species or system beagle dogs; conditions: 20 mg/kg, intravenous, after 4 hours
Experimental: Measurement of platelet aggregation in vivo was carried out using the technique described by Broersma, et al., Thomb. diath. Haemorrhag. 29, 201 (1973). Such determinations are based upon the measurement of the blood pressure proximal to a filter with 53 micron openings through which arterial blood flows. Platelet aggregation partially obstructs the filter with time causing a change in the pressure which is proportional to the degree of platelet aggregation (thrombosis).
Fasted male beagle dogs were anesthetized with sodium pentobarbital (35 mg/kg), heparinized (16.5 μ/kg, i.v.) and tested for platelet function using aggregometry. Compounds were administered intravenously in solutions having the pH adjusted to 7.4. The solution was infused at a rate of 15.3 ml/min to total volume of 5 ml/kg of body weight. Thrombus formation was observed using the filter occlusion technique outlined above. Platelet count, hematocrit, blood pressure, and heart rate were also measured.

[3] = test system: ADP-induced emboli / platelet aggregation; assay: Protection of mice from ADP challenge (inclined screen test); type: in vivo; conditions: 60 mg/kg i.p.; ten mice; ADP i.v. one hour after compound
Experimental: Emboli formed in the vascular system of mice in response to the administration of ADP cause a stroke-like response that prevents mice from staying on an inclined screen. To illustrate the platelet aggregation inhibition effect of the 1,3,4-thiadiazoles, ten mice were dosed by intraperitoneal injection with 60 mgs per kilogram of body weight of the compound 2,5-bis(2-(diethylamino)ethylthio)-1,3,4-thiadiazole di-p-toluenesulfonic acid salt (Example 3). One hour after compound administration, the mice were challenged with ADP (0.05 M mole/kg) by injection via the tail vein and placed on an inclined screen. Unprotected control mice not injected with thiadiazole were unable to maintain their position on the screen when given a similar injection of ADP.

tobacco black shank = assay: Control of tobacco black shank, soil drench; type: in vivo

CC(=O)Oc1ccccc1C(=O)O [Aspirin, reference compound]
IC50 ([1]; Rattus norvegicus, Platelet, read-out: IC50 ADPmax): 12.8 µM
IC50 ([1]; Rattus norvegicus, Platelet, read-out: IC50 ADPslope): 18.1 µM

C(CSc1nnc(SCCCN2CCOCC2)s1)CN1CCOCC1 [Example 1, 2,5-bis(3-(4-morpholinyl)-propylthio)-1,3,4-thiadiazole]
activity relative to aspirin in the inhibition of ADP induced platelet aggregation ([1]; compared with aspirin, conditions of this test): about twice as active as aspirin
IC50 ([1]; inhibits maximum ADP-induced platelet aggregation by 50%, rat platelet rich plasma, read-out: IC50 ADPmax): 6.28 µM
IC50 ([1]; inhibits the speed of the platelet aggregation by 50%, rat platelet rich plasma, read-out: IC50 ADPslope): 9.41 µM

C1CN(CCSc2nnc(SCCN3CCOCC3)s2)CCO1 [2,5-bis-(2-(4-morpholinyl)ethylthio)-1,3,4-thiadiazole]
reduction of ADP induced platelet aggregation in the dog [2]: 36%

CCN(CC)CCSc1nnc(SCCN(CC)CC)s1.Cc1ccc(S(=O)(=O)O)cc1.Cc1ccc(S(=O)(=O)O)cc1 [Example 3, 2,5-bis(2-(diethylamino)ethylthio)-1,3,4-thiadiazole di-p-toluenesulfonic acid salt]
mice protected from ADP challenge and able to remain on the screen [3]: 40%

CCN(CC)CCSc1nnc(N)s1 [Example 2, 2-amino-5-(2-(diethylamino)ethylthio)-1,3,4-thiadiazole]
control and killing of tobacco black shank (in words) (tobacco black shank): effective in the control and killing of tobacco black shank
control of the disease (tobacco black shank) (tobacco black shank; solution of 25 ppm): 100%
